Columns and labels:
[1] = system: PfK1; details: cited from earlier work
[2] = system: Pf3D7 strain; details: cited from earlier work
[3] = system: PfNF54; experiment: 72 h pLDH assay, PfNF54 (precursor compounds); type: cell-based, Plasmodium falciparum
Experimental: Lastly, the pharmacological effect of substitution with a methyl group at different positions on the bpy ring was determined (SAR4). Changing from the 4,4′-positions (C2) to the 5,5′-positions (C14) improved the PfNF54 activity by 5-fold, whereas changing to the 6,6′-positions (C15) decreased the activity by 2-fold.

[4] = system: Chinese hamster ovary (CHO) cell line; experiment: MTT cytotoxicity assay; type: cell-based; details: Cricetulus griseus, CHO, 48 h, read-out: CHO IC50
Experimental: 1.6.In vitro cytotoxicity assay
A 3-(4,5-dimethylthiazol-2-yl)-2,5-diphenyltetrazoliumbromide (MTT) assay was used to screen the metal complexes against the mammalian Chinese hamster ovarian (CHO) cell line.
A stock solution of each compound (2 mg/mL) in DMSO was prepared and kept at -20 °C until needed. Emetine was used as a reference drug. A starting concentration of 100 µg/mL was used, and serially diluted ten-fold using a complete medium to give the lowest concentration of 0.001 µg/mL (6 dilutions). The plates containing the CHO cells under drug pressure were […]
Plates containing the drug and cell suspension were developed by adding 25 μL of sterile MTT (Thermo Fisher Scientific) (25 µL) to each well, followed by 4 h […]
of incubation at room temperature in the dark. The plates were then centrifuged, and the supernatant was removed via aspiration. Sample absorbance was read at a wavelength of 540 […]
analysis via GraphPad Prism v.4.0 software. The IC50 values were determined for each compound were determined from the dose-response curves. […]

Molecule | fold increase in activity compared to CQ [1] [fold] | fold increase in activity compared to CQ [2] [fold] | IC50 ([3]; Plasmodium falciparum, 72 h, read-out: PfNF54 IC50) [µM] | inhibition of Pf proliferation ([3]; maximum concentration of 5 μM, PfNF54) | IC50 [4] [µM]
ferroquine [FQ] | 25 | 1.7 | – | – | –
O=C(NC(=S)N(CCO)CCO)c1ccccc1 [compound 2] | – | – | > 5 | did not inhibit Pf proliferation | > 50

— article PMC11912270, “Synthesis and SAR Studies of Acyl-Thiourea Platinum(II) Complexes Yield Analogs with Dual-Stage Antiplasmodium Activity” (ACS Medicinal Chemistry Letters, 2025)
